Here are results for 13 compounds from patent EP4335865A1, “INTERACTION BETWEEN A GLYCOLIPID AND MAJOR CAPSID PROTEIN (VP1) OF SHEEP POLYOMAVIRUS AND, METHODS, KITS AND USES THEREOF” (Eberhard-Karls-Universität Tübingen, priority 2022, dated 2024).

Test [1] concerns major capsid protein VP1 of sheep polyomavirus (ShPyV). The test can be described thus: Glycan microarray screening of recombinant VP1. The test is classed as binding. Conditions: broad spectrum glycan microarray of over 900 different carbohydrate structures. The text has this: To identify potential attachment factors of sheep polyomavirus (ShPyV), the inventors subjected the recombinantly expressed major capsid protein VP1 to broad spectrum glycan microarray screening of over 900 different carbohydrate structures (Fig. 1A). […] Among the four strongest reliable signals in the glycan array, which are depicted in figure 1, two stem from glycans carrying α→6 linked sialic acids, which are 9-O-Acetyl-N-acetylneuraminic acid (Neu5,9Ac) and N-glycolyl-neuraminic acid (Neu5Gc).
Among all carbohydrates in the glycan array the Forssman glycolipid is the only probe that features the Forssman disaccharide GalNAcα→3GalNAcβ.

The subject of test [2] is ShPyV VP1. Briefly: Derivatization of VP1 crystals with oligosaccharides and structure solution. Conditions: crystals soaked with oligosaccharide (10 mM globo-N-tetraose). It counts as binding, sheep polyomavirus (ShPyV). The text has this: The inventors presume that the Forssman disaccharide GalNAcα^5→3GalNAc^4, which promotes the hydrophobic interactions to VP1, is the main determinant for tropism. To corroborate this hypothesis, the inventors derivatized ShPyV VP1 crystals with globo-N-tetraose (Gb4), the glycan of the globoseries P antigen and molecular precursor of FP, and determined the structure of the complex (Table S2).
Additionally, the structural elucidation of the VP1-FP complex allows for the superposition of the epitopes of other aGalNAc antigens such as A (GalNAcα→3(Fucα→2)Gal-R) and Tn (GalNAcα→O-Ser/Thr) into the identified Forssman binding site.
Purified ShPyV VP1 was concentrated to 3.5 mg/ml. Crystallization droplets were set up comprising 1 µl protein and 1 µl reservoir solution (150 mM KSCN and 20 % (w/v) PEG 3,350). The droplets were equilibrated against the 500 µl reservoir using the hanging drop vapor diffusion method at 20 °C. For ligand derivatization, VP1 crystals were soaked in crystallization solution supplemented with the respective oligosaccharides (10 mM FA pentaose, 10 mM globo-N-tetraose, 5 mM FA pentaose + 20 mM 3'SLN, and 5 mM pentaose + 20 mM 6'SLN), at 20 °C for half an hour. Prior to flash freezing, crystals were transferred to soaking solutions supplemented with 20 % (v/v) MPD for cryo-protection. X-ray diffraction experiments were performed using the Swiss Light Source (SLS) beamline X06DA at the PSI (Villigen, Switzerland). Data were collected at a wavelength of 1 Å and an excitation time and angle of 0.1 s and 0.1° per image, respectively. All carbohydrates were purchased from Carbosynth, UK.
X-ray diffraction images were integrated and scaled using XDS software. For each data set, 2000-3000 reflections were reserved as a test set for structure validation. Phases were determined by molecular replacement using the native sheep polyomavirus VP1 structure as search model (PDB ID 6Y61) in PHASER (CCP4). […]

The subject of test [3] is FORS+ cell binding by HPA. Briefly: Inhibition assay of HPA binding to ovine blood cells. The test is classed as cell-based, sheep. Conditions: exceeding amounts of trisaccharide inhibitor (Fig. 5C). The method, then: The inventors also examine the engagement of FORS- human erythrocytes by ShPyV VP1 and compare the results to HPA, which is a commonly used indicator for aberrant glycosylation in cancerogenesis. […] In contrast, FORS+ cell binding by HPA is inhibited by exceeding amounts of both F-tri and A-tri (Fig. 5C).
Erythrocytes from defibrinated blood were diluted into FACS buffer (1× PBS + 2 % FCS) to a density of 10×10^6 cells / mL. Samples of 1×10^6 cells were incubated with labeled protein at room temperature for 30 minutes with occasional shaking. Samples were then directly transferred to the flow cytometer (LSR II, BD Biosciences). Singlet cells were gated and the fluorescent population was captured at […]. M1/87-FITC (Santa Cruz Biotechnology) and HPA Alexa Fluor™ 488 conjugate (Invitrogen), respectively were used as references. Defibrinated sheep and bovine blood were purchased from TCS Biosciences Ltd and BioTrading Benelux B.V., respectively.

For test [4], the system named is ShPyV VP1. Briefly: Saturation-transfer difference (STD) NMR in solution. The test is classed as binding, sheep polyomavirus (ShPyV). The note with it: 1 mM Forssman pentaose and 1 mM 6'SL in presence of 20 µM ShPyV VP1, 298 K. The text has this: To assess whether the interaction of ShPyV VP1 to Forssman pentaose (FP), the glycan portion of Forssman glycolipid, also occurs in a more physiologic setting (i.e., in solution), the inventors conducted a saturation-transfer difference (STD) NMR experiment. […] Thereby, the protein resonances remain invisible. 59,60 The inventors recorded the STD-NMR resonances from a sample comprising VP1 and the oligosaccharides Forssman pentaose and 6sialyllactose (6'SL) as ligands, for which the inventors also provide reference spectra (Fig. 2B-C). […] Since excitation transfer heavily falls off with distance, VP1 is expected to contact an extensive portion of FP during the binding event.
All nuclear magnetic resonance (NMR) data were collected in a Bruker AVIII-600 MHz spectrometer equipped with a TXI-z probe head at 298 K. The inventors performed the experiments using 3 mm NMR tubes. Samples were provided in 99 % D2O-PBS containing 20 mM KH2PO4/K2HPO4 (pH 7.4) and 150 mM NaCl. Initially, ^1H reference spectra of isolate oligosaccharides samples (4 mM Forssman pentaose and 2 mM 6'SL, respectively) were recorded. Subsequently, the ^1H resonances of a sample comprising 1 mM Forssman pentaose and 1 mM 6'SL in presence of 20 µM ShPyV VP1 were collected. From the same sample, the saturation difference transfer (STD) NMR experiment was performed. […]

Test [5] has as its target human Gal-9 carbohydrate recognition domain (CRD) (Homo sapiens, UniProt O00182). Conditions: carbohydrate library screening, reference 62; cited from earlier work.
For test [6], the target named is ShPyV VP1. The test can be described thus: Crystallographic affinity determination (glycan dilution series in VP1 crystals). It counts as binding, sheep polyomavirus (ShPyV). Conditions: approximate; integrated FP electron density vs concentration, Michaelis-Menten approach; 10 mM down to 0.0195 mM FP; read-out: dissociation constant between VP1 and FP (crystallographic, Kdc). The text has this:
Due to the costliness of Forssman glycans, conventional biophysical affinity determination techniques were not applied. To still establish an approximate dissociation constant value, the inventors derivatize isomorphous ShPyV VP1 crystals with serially diluted Forssman pentaose (FP) solution and collect the diffraction data.
To approximate the affinity towards FA pentaose (FP) the inventors prepared a glycan dilution series in VP1 crystals, an approach that was successfully utilized in the past. [16,23]_VP1 crystals were grown as described above. The reference soaking solution (10 mM FP in 150 mM KSCN, 20 % (w/v) PEG 3,350 and 20 % (v/v) MPD) was diluted using 1:2 steps down to a final concentration of 0.0195 mM. Distinct crystals and equal soaking times were used for the parallel derivatization with FP at the different concentrations. Data collection was performed as described above. For processing, the unit cell constants of all data sets were treated as isomorphous. All diffraction intensities were scaled against the 10 mM FP reference data set using scaleit. A single structure solution was sufficient for all data sets. A VP1 model lacking all water and carbohydrate atoms, and a control tripeptide (AA 143-145) in all chains, was used for simulated annealing refinement (Phenix). […]

Chain of human Gal-9 carbohydrate recognition domain (CRD) (O00182 1-148 limits assumed): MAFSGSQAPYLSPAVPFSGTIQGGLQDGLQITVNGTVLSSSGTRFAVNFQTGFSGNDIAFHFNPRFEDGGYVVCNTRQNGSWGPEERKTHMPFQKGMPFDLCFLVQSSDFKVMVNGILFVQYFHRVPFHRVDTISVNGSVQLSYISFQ

For GTic oligosaccharide, in test [1], the “glycan array response (binding to VP1)” value is “relatively weak”.

For GalNAcα→3(Fucα→2)Gal-R [A antigen], the “glycan array response (binding to VP1)” value in test [1] is listed as “no significant binding”.

`CC(=O)N[C@H]1[C@@H](O[C@H]2[C@@H](O)[C@@H](CO)O[C@@H](O)[C@@H]2O[C@@H]2O[C@@H](C)[C@@H](O)[C@@H](O)[C@@H]2O)O[C@H](CO)[C@H](O)[C@@H]1O` [A antigen trisaccharide]: the “ligand electron density / binding in derivatized VP1 crystals” value (“ligand electron density / binding” for short) in the test on ShPyV VP1 [2] was “unliganded VP1 pentamers”. For the same compound, the “inhibition of FORS+ cell binding by HPA” value in test [3] was “inhibited”.

Consider Galβ→3-Tn [T antigen], for which the “ligand electron density / binding” value in the test with ShPyV VP1 [2] is “unliganded VP1 pentamers”.

With `CC(=O)N[C@H]1[C@H]([C@H](O)[C@H](O)CO)O[C@@](OC[C@H]2O[C@@H](O[C@H]3[C@H](O)[C@@H](O)[C@H](O)O[C@@H]3CO)[C@H](O)[C@@H](O)[C@H]2O)(C(=O)O)C[C@@H]1O` [6'SL, 6'sialyllactose], in the test on ShPyV VP1 [4], the “STD-NMR binding to VP1” value is given as “signal of a third methyl group in the STD-NMR spectrum manifests as the only transferred resonance”.

On to `CC(=O)NC1C(OC2C(O)C(CO)OC(OC3C(CO)OC(OC4C(CO)OC(O)C(O)C4O)C(O)C3O)C2O)OC(CO)C(O)C1O` (stereo not shown) [Gb4, globo-N-tetraose], for which, in the test with ShPyV VP1 [2], the “ligand electron density / binding” value is listed as “negligible binding affinity”.

Consider GM1 pentaose, for which, in test [1], the “glycan array response (binding to VP1)” value is “relatively weak”.

In the case of “GalNAcα1→3GalNAcβ1→3Galα1→4Galβ1→4Glcβ1->1Cer [Forssman glycolipid]”, the “glycan array response (binding to VP1)” value in test [1] is “surprisingly strong response”.

As for `CC(=O)N[C@H]1[C@@H](O[C@H]2[C@@H](O)[C@@H](CO)O[C@@H](O[C@H]3[C@@H](O)[C@@H](CO)O[C@H](O[C@@H]4[C@H](O)[C@@H](O)[C@H](O[C@H]5[C@H](O)[C@@H](O)C(O)O[C@@H]5CO)O[C@@H]4CO)[C@@H]3O)[C@@H]2NC(C)=O)O[C@H](CO)[C@H](O)[C@@H]1O` (stereo partly shown) [FP, GalNAcα^5→3GalNAcβ^4→3Galα^3→4Galβ^2→4Glc^1], the Kd in test [5] is 0.3 µM; at ShPyV VP1 [6] it was around 38.2 µM. In addition, in the test on ShPyV VP1 [4], the “STD-NMR binding to VP1” value was “binding of FP to VP1”.

GalNAcα→O-Ser/Thr [Tn antigen]: in test [1], the “glycan array response (binding to VP1)” value is recorded as “no significant binding”.

Consider `CC(=O)N[C@H]1C(O)O[C@H](CO[C@@H]2O[C@H](CO)[C@H](O)[C@H](O)[C@H]2O)[C@H](O)[C@@H]1O` (stereo partly shown) [Galβ-6GalNAc disaccharide, Galβ-6GalNAc], for which, in test [1], the “glycan array response (binding to VP1)” value is recorded as “relatively strong signal”.

For GD3 tetraose, the “glycan array response (binding to VP1)” value in test [1] is given as “relatively weak”.

`CC(=O)N[C@H]1[C@H]([C@H](O)[C@H](O)CO)O[C@](OC[C@H]2O[C@@H](O[C@H]3[C@H](O)[C@@H](NC(C)=O)C(O)O[C@@H]3CO)[C@H](O)[C@@H](O)[C@H]2O)(C(=O)O)C[C@@H]1O` (stereo partly shown) [6'sialyllactosamine]: the “glycan array response (binding to VP1)” value in test [1] is recorded as “relatively weak”.
